# Assays:
# [1] = tested on: MT2; experiment: Inhibitory concentration against HIV LAI in MT-2 cells when tested at a range of 0.001-10 uM concentration; Inactive; assay type: functional, cell-based, Homo sapiens
# [2] = tested on: MT4; experiment: Inhibitory concentration against HIV LAI in MT-4 cells when tested at a range of 0.001-10 uM concentration; Inactive; assay type: functional, cell-based, Homo sapiens
# [3] = tested on: MT2; experiment: Inhibitory concentration of compound against HIV LAI in MT-2 cells when tested at a range of 0.001-10 uM concentration; assay type: functional, cell-based; details: Homo sapiens
# [4] = tested on: MT4; experiment: Inhibitory concentration of compound against HIV LAI in MT-4 cells when tested at a range of 0.001-10 uM concentration; assay type: functional, cell-based; details: Homo sapiens
SMILES,IC50 [1],IC50 [2],IC50 [3] [nM],IC50 [4] [nM]
C#C[C@@]1(CO)CCC(n2ccc(N)nc2=O)O1 (some centres undefined),Not Active,Not Active,,
CC(C)c1nc(CN(C)C(=O)N[C@H](C(=O)N[C@@H](Cc2ccccc2)C[C@H](O)[C@H](Cc2ccccc2)NC(=O)OCc2cncs2)C(C)C)cs1 [RITONAVIR],,,10,10
